Laboratory results: PubChem BioAssay AID2060615 (Molecular Pharmacology Branch, DTP, NCI, 2025)

Tested on: 496974-208-R-J2-PDC complex spheroids, growth % test/control
Assay: Anticancer human tumor 496974-208-R-J2-PDC patient-derived pancreatic carcinoma cell line growth inhibition [CLK]
Conditions: for IC50: curve of first compound; for viability, T/C: stronger effect = lower value
Excerpt: A high-throughput screen of multi-cell type tumor spheroids was designed to identify active combinations of […] and targeted small molecules. Complex spheroids include a stromal component modeled by human endothelial cells (HUVEC) and fibroblasts modeled by human mesenchymal stem cells (MSCs). The concentration ranges selected for each drug and investigational agent were based upon clinically achievable concentrations if the clinical Cmax of the agent was known.
Compounds. The drugs and investigational agents: cirtuvivint (SM08502; NSC835563), CC-671 (NSC850746), vemurafenib (NSC761431), tapotoclax (NSC804041), sotorasib (NSC818433), adagrasib (NSC831453), MRTX-1133 (NSC836407), BAY2416964 (NSC825713), copanlisib (NSC816437), inavolisib (NSC800729), abemaciclib (NSC768073), osimertinib (NSC779217), entinostat (NSC756642), eltanexor (KPT-8602, NSC794443), venetoclax (NSC766270), ceralasertib (NSC777638), bortezomib (NSC756655), olaparib (NSC753686), talazoparib (NSC767125), alisertib (NSC759677), peposertib (NSC802822), gemcitabine (NSC613327), 5-fluorouracil (NSC19893), SN-38 (NSC673596), oxaliplatin (NSC266046), paclitaxel (NSC125973), and doxorubicin (NSC123127), were obtained from the National Cancer Institute (NCI) Developmental Therapeutics Program Chemical Repository. The FDA-approved anticancer drug set is available from the Developmental Therapeutics Program at https://dtp.cancer.gov/organization/dscb/obtaining/available plates.htm. […] The stock solutions were prepared in dimethyl sulfoxide (DMSO, Sigma-Aldrich, St. Louis, MO, cat. D2650), except for the platinum complexes which were prepared in saline (Quality Biological, Gaithersburg, MD, cat. 114-055-101), at 800-fold the tested concentration and stored at -70 degrees C prior to their use. All drugs and investigational agents were tested over a range starting from a high concentration at or near the clinical Cmax and decreasing in half-log increments. If the clinical Cmax for an agent had not been determined, the highest concentration tested was 10 microM.
Cell Culture. All cells were maintained in an incubator at 37 degrees C and 5% CO2 with 95% humidity. The PDC lines were cultured according to standard operating procedures established by the NCI PDMR. Briefly, all PDCs were thawed and cultured in Matrigel-coated flasks prepared with a working solution of 1X Ham's F-12 nutrient mix, without supplementation (Invitrogen, Waltham, MA, cat. 11765054), 100 U/mL penicillin-streptomycin (Invitrogen, cat. 15140122), and 2.5% Matrigel (Corning Inc., Corning, NY, cat. 354248) for the first three passages. The 947758-054-R-J2-PDC line was cultured in 6B/Colon 1A media, which includes advanced DMEM/F-12 (Thermo Fisher Scientific, cat. 12634028), 10 mM HEPES (Thermo Fisher Scientific, cat. 15630080), 1X GlutaMAX supplement (Thermo Fisher Scientific, cat. 35050061), 0.1 mg/mL primocin (InvivoGen, cat. ant-pm-2), 10% defined fetal bovine serum, heat inactivated (HyClone Laboratories Inc., cat. SH30070.03HI), 1.25 mM N-Acetyl-L-cysteine (Sigma-Aldrich, cat. A9165), 10 mM nicotinamide (Sigma-Aldrich, cat. N0636), 1X B-27 supplement (Thermo Fisher Scientific, cat. 17504044), 1X N-2 supplement (Thermo Fisher Scientific, cat. 17502048), and 10 microM Y-27632 dihydrochloride (Tocris Bioscience, cat. 1254). The 876862-298-R-J1-PDC was cultured in 6E media, which includes all 6B/Colon 1A media components plus 50% L-WRN conditioned media (ATCC, cat. CRL-3276), 50 ng/mL recombinant human EGF recombinant protein (hEGF; Thermo Fisher Scientific, cat. PHG0311), 10 ng/mL recombinant human fibroblast growth factor 10 (hGFG-10; PeproTech, cat. 100-26), 1 ng/mL recombinant human fibroblast growth factor 2 (hFGF-2; PeproTech, cat. 100-18B), and 1 µM prostaglandin E2 (PGE2; Tocris, cat. 2296). The 227483-062-R1-J1-PDC line was cultured in Panc media, containing all 6E components except hFGF-2, with the addition of 500 nM SB-431542 (Selleckchem, cat. S1067) and 10 nM gastrin (Tocris, cat. 3006). […]
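Further: spheroids exposed to the drugs for 7 days before readout.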
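Wherever viability, T/C is given: 100% = DMSO vehicle control wells.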

Compound: C=CC(=O)N1CCN(c2nc(=O)n(-c3c(C)ccnc3C(C)C)c3nc(-c4c(O)cccc4F)c(F)cc23)C(C)C1 (configuration not stated) + CN1CCN(c2cc(C(=O)Nc3cc4cc(-c5cnn(C)c5)ccc4cn3)ccn2)CC1
- IC50 (second compound 0.0316 µM): > 10000 nM
- IC50 (second compound 0.1 µM): > 10000 nM
- IC50 (second compound 0.316 µM): < 31.6 nM
- IC50 (second compound 1 µM): < 31.6 nM
- IC50 (second compound 3.16 µM): < 31.6 nM
- IC50 (second compound 10 µM): < 31.6 nM
- viability, T/C (second compound 0.0316 µM, first compound 0.0316 µM): 102%
- viability, T/C (second compound 0.0316 µM, first compound 0.1 µM): 114%
- viability, T/C (second compound 0.0316 µM, first compound 0.316 µM): 104%
- viability, T/C (second compound 0.0316 µM, first compound 1 µM): 120%
- viability, T/C (second compound 0.0316 µM, first compound 3.16 µM): 128%
- viability, T/C (second compound 0.0316 µM, first compound 10 µM): 99.9%
- viability, T/C (second compound 0.1 µM, first compound 0.0316 µM): 90.2%
- viability, T/C (second compound 0.1 µM, first compound 0.1 µM): 89.7%
- viability, T/C (second compound 0.1 µM, first compound 0.316 µM): 89.2%
- viability, T/C (second compound 0.1 µM, first compound 1 µM): 104%
- viability, T/C (second compound 0.1 µM, first compound 3.16 µM): 101%
- viability, T/C (second compound 0.1 µM, first compound 10 µM): 78.4%
- viability, T/C (second compound 0.316 µM, first compound 0.0316 µM): 8.25%
- viability, T/C (second compound 0.316 µM, first compound 0.1 µM): 9.83%
- viability, T/C (second compound 0.316 µM, first compound 0.316 µM): 8.72%
- viability, T/C (second compound 0.316 µM, first compound 1 µM): 10.3%
- viability, T/C (second compound 0.316 µM, first compound 3.16 µM): 7.48%
- viability, T/C (second compound 0.316 µM, first compound 10 µM): 5.87%
- viability, T/C (second compound 1 µM, first compound 0.0316 µM): 0.39%
- viability, T/C (second compound 1 µM, first compound 0.1 µM): 0.6%
- viability, T/C (second compound 1 µM, first compound 0.316 µM): 1.15%
- viability, T/C (second compound 1 µM, first compound 1 µM): 0.78%
- viability, T/C (second compound 1 µM, first compound 3.16 µM): 1%
- viability, T/C (second compound 1 µM, first compound 10 µM): 3.71%
- viability, T/C (second compound 3.16 µM, first compound 0.0316 µM): 0.44%
- viability, T/C (second compound 3.16 µM, first compound 0.1 µM): 1.82%
- viability, T/C (second compound 3.16 µM, first compound 0.316 µM): 0.7%
- viability, T/C (second compound 3.16 µM, first compound 1 µM): 0.75%
- viability, T/C (second compound 3.16 µM, first compound 3.16 µM): 0.83%
- viability, T/C (second compound 3.16 µM, first compound 10 µM): 2.13%
- viability, T/C (second compound 10 µM, first compound 0.0316 µM): 0.31%
- viability, T/C (second compound 10 µM, first compound 0.1 µM): 0.35%
- viability, T/C (second compound 10 µM, first compound 0.316 µM): 0.36%
- viability, T/C (second compound 10 µM, first compound 1 µM): 0.46%
- viability, T/C (second compound 10 µM, first compound 3.16 µM): 2.05%
- viability, T/C (second compound 10 µM, first compound 10 µM): 0.94%
